According to patent US11370847B2, “Single domain antibodies directed against intracellular antigens” (Singh Biotechnology, LLC, priority 2014, dated 2022):
Numbered stars: 1 amine (or outer) side, 2 acyl side, 3 side chain; on linkers, the order of the positions; unused ones are H or OH. Bridge positions count the residues as written; N and C are the ends. Square brackets hold non-standard residues; d marks the D form. Peptide text beside a SMILES is read from it. I, II: the chains in the order shown. Actinocin(9to1) = Cc1c2oc3c(C)ccc(C(=O)[*:1])c3nc-2c(C(=O)[*:2])c(N)c1=O; NMeV = CN[C@H](C(=O)O)C(C)C; Sar = CNCC(=O)O

Biological target: T1, TNF-α (Homo sapiens, UniProt P01375)
T1 construct: purchased Sigma-Aldrich
Experiment: Inhibition of TNF-α cytotoxicity in L929 fibroblast cells (MTS)
Type: cell-based, mouse
Conditions: Assay 2, Actinomycin D only (no TNFα), sample replicates

T1 sequence (P01375 77-233 limits assumed): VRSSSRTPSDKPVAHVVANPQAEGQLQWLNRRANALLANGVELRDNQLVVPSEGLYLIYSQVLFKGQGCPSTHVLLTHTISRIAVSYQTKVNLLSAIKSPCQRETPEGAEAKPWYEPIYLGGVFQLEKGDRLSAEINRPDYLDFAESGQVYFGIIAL

## Cc1c2oc3c(C)ccc(C(=O)N[C@@H]4C(=O)N[C@H](C(C)C)C(=O)N5CCC[C@H]5C(=O)N(C)CC(=O)N(C)[C@@H](C(C)C)C(=O)O[C@@H]4C)c3nc-2c(C(=O)N[C@@H]2C(=O)N[C@H](C(C)C)C(=O)N3CCC[C@H]3C(=O)N(C)CC(=O)N(C)[C@@H](C(C)C)C(=O)O[C@@H]2C)c(N)c1=O [Actinomycin D] (I: T[dV]P[Sar][NMeV] / II: T[dV]P[Sar][NMeV]; ester I:1-I:C, II:1-II:C; linker I:N-II:N via Actinocin(9to1))
  % Toxicity: 0%
